From patent US9890166B2, “Imidazopyrrolidine derivatives and their use in the treatment of disease” (NOVARTIS AG, priority 2013, dated 2018) come the findings set out here.

One assay has as its target BRD2 (His-Brd2(60-472)) (Homo sapiens (Human), UniProt P25440). As to the kind of experiment: TR-FRET in-vitro binding assay for BRD2. To be noted: single determination or n ≧ 2 independent determinations, read-out: Biochemical IC50 BRD2. The method in brief:
(§1)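 His-tagged BRD2, BRD3 and BRD4 fragments tested by TR-FRET at 8 compound concentrations, with DMSO stocks at 10 mM. Read on EnVision after 35 min incubation at 30° C.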
A general note: In TR-FRET formats the signal depends on donor and acceptor labels being close together.

The next assay addresses BRD3 (His-Brd3(20-477)) (Homo sapiens (Human), UniProt Q15059). Put plainly: TR-FRET in-vitro binding assay for BRD3. The conditions noted are these: single determination or n ≧ 2 independent determinations, read-out: Biochemical IC50 BRD3. The method in brief: as §1
The next assay deals with MV-4-11 cells. Put plainly: Cell growth inhibition assay (CellTiter-Glo), MV-4-11.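 On all read-outs here: cellular ATP luminescence after 4 days, 3-fold dilution series from 10 µM top dose, vehicle (0.1% DMSO) set to 100%, cell-free medium set to −100%, day 0 corrected.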 To be noted: for GI50: Homo sapiens, MV4-11, read-out: MV-4-11 GI50; for MV-4-11 TGI: MV-4-11 cells, total growth inhibition, CellTiter-Glo. In general terms: ATP-based viability assays read luminescence as a measure of living cells.
For another assay, the target named is BRD4 (His-Brd4(44-477)) (Homo sapiens (Human), UniProt O60885). Put plainly: TR-FRET in-vitro binding assay for BRD4. The conditions noted are these: single determination or n ≧ 2 independent determinations, read-out: Biochemical IC50 BRD4. The procedure, abridged:
as §1

For another assay, the system named is K-562 cells. Put plainly: Cell growth inhibition assay (CellTiter-Glo), K-562.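 On all read-outs here: cellular ATP measured by luminescence after 4 days of exposure, 3-fold dilution series from 10 µM, DMSO vehicle-treated cells define 100%, cell-free medium wells −100%.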 The conditions noted are these: for GI50: Homo sapiens, K562, read-out: K-562 GI50; for K-562 TGI: K-562 cells, total growth inhibition, CellTiter-Glo.
The target in assay [1] is CREBBP bromodomain (His-CREBBP(1081-1197)) (Homo sapiens (Human), UniProt Q92793). As to the kind of experiment: AlphaScreen in-vitro binding assay for CREBBP. The conditions noted are these: single determination or n ≧ 2 independent determinations, read-out: Biochemical IC50 CREBBP. The method in brief:
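Detection used nickel-chelate acceptor plus streptavidin donor AlphaScreen beads, 1 h room temperature. Percent inhibition fitted by non-linear regression to IC50.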
(In general: Bead proximity is the source of the signal in Alpha formats.)

In a further assay the test system is THP-1 cells. As to the kind of experiment: Cell growth inhibition assay (CellTiter-Glo), THP-1.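 On all read-outs here: viability read as cellular ATP luminescence after 4 days, 3-fold dilution series from 10 µM, DMSO vehicle-treated cells taken as 100%, cell-free medium wells as −100%.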 To be noted: for GI50: Homo sapiens, THP-1, read-out: THP-1 GI50; for THP-1 TGI: THP-1 cells, total growth inhibition, CellTiter-Glo.

BRD3 (His-Brd3(20-477)), sequence (Q15059 20-477): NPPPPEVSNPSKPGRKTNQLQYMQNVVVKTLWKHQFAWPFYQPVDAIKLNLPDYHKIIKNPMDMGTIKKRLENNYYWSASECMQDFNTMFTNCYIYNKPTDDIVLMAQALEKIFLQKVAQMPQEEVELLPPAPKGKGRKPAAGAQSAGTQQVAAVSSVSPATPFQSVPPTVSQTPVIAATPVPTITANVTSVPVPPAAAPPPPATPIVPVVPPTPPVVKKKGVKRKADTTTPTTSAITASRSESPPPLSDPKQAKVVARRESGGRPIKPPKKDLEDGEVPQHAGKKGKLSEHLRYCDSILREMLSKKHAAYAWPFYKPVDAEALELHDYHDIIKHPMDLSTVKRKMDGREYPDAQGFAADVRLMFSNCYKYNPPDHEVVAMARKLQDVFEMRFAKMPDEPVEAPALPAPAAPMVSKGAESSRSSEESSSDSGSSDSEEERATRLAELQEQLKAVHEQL
BRD2 (His-Brd2(60-472)), sequence (P25440 60-472): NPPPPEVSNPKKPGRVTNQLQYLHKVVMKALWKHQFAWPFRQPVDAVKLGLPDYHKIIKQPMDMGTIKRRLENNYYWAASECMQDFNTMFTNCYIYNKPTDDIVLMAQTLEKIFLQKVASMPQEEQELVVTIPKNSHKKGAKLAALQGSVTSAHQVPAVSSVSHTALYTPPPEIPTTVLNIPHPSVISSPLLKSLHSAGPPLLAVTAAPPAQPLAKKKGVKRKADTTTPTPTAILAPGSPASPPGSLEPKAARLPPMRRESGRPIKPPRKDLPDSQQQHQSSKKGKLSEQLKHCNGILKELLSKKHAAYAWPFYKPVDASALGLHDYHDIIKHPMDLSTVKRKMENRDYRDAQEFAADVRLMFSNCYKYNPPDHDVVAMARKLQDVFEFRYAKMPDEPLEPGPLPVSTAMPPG
CREBBP bromodomain (His-CREBBP(1081-1197)), sequence (Q92793 1081-1197): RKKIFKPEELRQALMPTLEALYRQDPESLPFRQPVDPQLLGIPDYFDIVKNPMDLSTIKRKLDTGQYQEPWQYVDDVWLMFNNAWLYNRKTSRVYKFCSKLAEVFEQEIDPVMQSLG

Take `COc1ccc(-c2nc3c(n2C(C)C)C(c2ccc(Cl)cc2)N(c2cc(C)c4nnn(C)c4c2)C3=O)cn1` (stereo not shown) [Example 83, 6-(4-chlorophenyl)-5-(1,4-dimethyl-1H-benzo[d][1,2,3]triazol-6-yl)-1-isopropyl-2-(6-methoxypyridin-3-yl)-5,6-dihydropyrrolo[3,4-d]imidazol-4(1H)-one]: the half-inhibitory concentration (IC50) on BRD2 (His-Brd2(60-472)) is 0.065 µM; on BRD3 (His-Brd3(20-477)) it was 0.03 µM; at BRD4 (His-Brd4(44-477)) it was 0.024 µM; in assay [1], above 37 µM. The GI50 in the assay with MV-4-11 cells amounted to 0.0239 µM; in the assay with K-562 cells it was 0.105 µM; with THP-1 cells, 0.0271 µM. Further, the “MV-4-11 TGI” value in the assay on MV-4-11 cells worked out at 0.0464 µM. Also, the “K-562 TGI” value in the assay on K-562 cells was above 10 µM. For the same molecule, the “THP-1 TGI” value in the assay with THP-1 cells was 0.0722 µM.

`Cc1cc(N2C(=O)c3nc(C4=CCOCC4)n(C(C)C)c3[C@H]2c2ccc(Cl)cc2)cn2c(C)nnc12` [Example 84, (R)-6-(4-chlorophenyl)-2-(3,6-dihydro-2H-pyran-4-yl)-5-(3,8-dimethyl-[1,2,4]triazolo[4,3-a]pyridin-6-yl)-1-isopropyl-5,6-dihydropyrrolo[3,4-d]imidazol-4(1H)-one]: the IC50 at BRD2 (His-Brd2(60-472)) came to 0.036 µM; at BRD3 (His-Brd3(20-477)) it was 0.024 µM; on BRD4 (His-Brd4(44-477)) it was 0.018 µM; in assay [1], 3.5 µM. Further, the GI50 stood at 0.0146 µM with MV-4-11 cells, 0.0732 µM in the assay with K-562 cells and 0.044 µM in the assay on THP-1 cells. In the assay on MV-4-11 cells, the “MV-4-11 TGI” value was 0.0294 µM. Further, in the assay with K-562 cells, the “K-562 TGI” value is above 10 µM. Also, the “THP-1 TGI” value with THP-1 cells was 0.0998 µM.

Regarding `Cc1cc(N2C(=O)c3nc(C4=CCCN(C)C4)n(C(C)C)c3[C@H]2c2ccc(Cl)cc2)cn2c(C)nnc12` [Example 85], the IC50 came out at 0.029 µM at BRD2 (His-Brd2(60-472)), 0.02 µM on BRD3 (His-Brd3(20-477)), 0.015 µM on BRD4 (His-Brd4(44-477)) and 3.65 µM in assay [1]. Further, the GI50 turned out to be 0.0163 µM in the assay with MV-4-11 cells, 0.277 µM with K-562 cells and 0.138 µM in the assay with THP-1 cells. In addition, the “MV-4-11 TGI” value in the assay with MV-4-11 cells is 0.0325 µM. Further, the “K-562 TGI” value with K-562 cells was above 10 µM. For the same molecule, the “THP-1 TGI” value in the assay with THP-1 cells was 0.37 µM.

`Cc1cc(N2C(=O)c3nc(C4CCOCC4)n(C(C)C)c3C2c2ccc(Cl)cc2)cn2c(C)nnc12` (stereo not shown) [Example 86, 6-(4-chlorophenyl)-5-(3,8-dimethyl-[1,2,4]triazolo[4,3-a]pyridin-6-yl)-1-isopropyl-2-(tetrahydro-2H-pyran-4-yl)-5,6-dihydropyrrolo[3,4-d]imidazol-4(1H)-one]: the 50% inhibitory concentration (IC50) is 0.019 µM at BRD2 (His-Brd2(60-472)), below 0.011 µM at BRD3 (His-Brd3(20-477)), below 0.011 µM at BRD4 (His-Brd4(44-477)) and 3.8 µM in assay [1]. Also, the GI50 in the assay with MV-4-11 cells was 0.0208 µM; in the assay on K-562 cells it was 0.249 µM; in the assay on THP-1 cells, 0.057 µM. The “MV-4-11 TGI” value in the assay with MV-4-11 cells worked out at 0.043 µM. The “K-562 TGI” value in the assay on K-562 cells is above 10 µM. Further, in the assay with THP-1 cells, the “THP-1 TGI” value was determined as 0.155 µM.

In the case of `Cc1cc(N2C(=O)c3nc(C4CCOCC4)n(C(C)C)c3[C@H]2c2ccc(Cl)cc2)cn2c(C)nnc12` [Example 87, (R)-6-(4-chlorophenyl)-5-(3,8-dimethyl-[1,2,4]triazolo[4,3-a]pyridin-6-yl)-1-isopropyl-2-(tetrahydro-2H-pyran-4-yl)-5,6-dihydropyrrolo[3,4-d]imidazol-4(1H)-one], the IC50 is 0.025 µM on BRD2 (His-Brd2(60-472)), 0.014 µM at BRD3 (His-Brd3(20-477)), 0.014 µM at BRD4 (His-Brd4(44-477)) and 1.8 µM in assay [1]. Besides, the GI50 came out at 0.00854 µM in the assay on MV-4-11 cells, 0.167 µM with K-562 cells and 0.0276 µM with THP-1 cells. The “MV-4-11 TGI” value in the assay with MV-4-11 cells was 0.01445 µM. For the same molecule, the “K-562 TGI” value in the assay on K-562 cells was above 10 µM. Besides, the “THP-1 TGI” value with THP-1 cells was 0.0792 µM.

Turning to `Cc1cc(N2C(=O)c3nc(C4=CCOCC4)n(C(C)C)c3C2c2ccc(Cl)cc2)cn2c(CF)nnc12` (stereo not shown) [Example 88, 6-(4-chlorophenyl)-2-(3,6-dihydro-2H-pyran-4-yl)-5-(3-(fluoromethyl)-8-methyl-[1,2,4]triazolo[4,3-a]pyridin-6-yl)-1-isopropyl-5,6-dihydropyrrolo[3,4-d]imidazol-4(1H)-one], the IC50 on BRD2 (His-Brd2(60-472)) worked out at 0.075 µM; at BRD3 (His-Brd3(20-477)) it was 0.043 µM; at BRD4 (His-Brd4(44-477)), 0.039 µM; in assay [1], 15 µM. In addition, the figures for the 50% growth inhibitory concentration (GI50) in the assay on MV-4-11 cells, with K-562 cells and in the assay on THP-1 cells were 0.0237 µM, 0.172 µM and 0.0428 µM, respectively. For the same molecule, the “MV-4-11 TGI” value with MV-4-11 cells was 0.03985 µM. Further, the “K-562 TGI” value in the assay with K-562 cells was above 10 µM. The “THP-1 TGI” value in the assay on THP-1 cells is 0.1121 µM.

With `COc1ncccc1-c1nc2c(n1C(C)C)C(c1ccc(Cl)cc1)N(c1cc(C)c3nnc(CF)n3c1)C2=O` (stereo not shown) [Example 89, 6-(4-chlorophenyl)-5-(3-(fluoromethyl)-8-methyl-[1,2,4]triazolo[4,3-a]pyridin-6-yl)-1-isopropyl-2-(2-methoxypyridin-3-yl)-5,6-dihydropyrrolo[3,4-d]imidazol-4(1H)-one], the half-maximal inhibitory concentration (IC50) on BRD2 (His-Brd2(60-472)) was found to be 0.035 µM; at BRD3 (His-Brd3(20-477)), 0.013 µM; on BRD4 (His-Brd4(44-477)) it was 0.015 µM; in assay [1], 8.35 µM. For the same molecule, the GI50 amounted to 0.0103 µM in the assay with MV-4-11 cells, 0.0636 µM in the assay with K-562 cells and 0.0149 µM with THP-1 cells. In addition, the “MV-4-11 TGI” value in the assay with MV-4-11 cells turned out to be 0.0208 µM. Besides, the “K-562 TGI” value in the assay with K-562 cells was above 10 µM. The “THP-1 TGI” value with THP-1 cells was determined as 0.04045 µM.

In the case of `Cc1cc(N2C(=O)c3nc(C4=CC(C)(C)NC(C)(C)C4)n(C(C)C)c3C2c2ccc(Cl)cc2)cn2c(CF)nnc12` (stereo not shown) [Example 90, 6-(4-chlorophenyl)-5-(3-(fluoromethyl)-8-methyl-[1,2,4]triazolo[4,3-a]pyridin-6-yl)-1-isopropyl-2-(2,2,6,6-tetramethyl-1,2,3,6-tetrahydropyridin-4-yl)-5,6-dihydropyrrolo[3,4-d]imidazol-4(1H)-one], the IC50 at BRD2 (His-Brd2(60-472)) stood at 0.067 µM; at BRD3 (His-Brd3(20-477)) it was 0.037 µM; at BRD4 (His-Brd4(44-477)) it was 0.03 µM; in assay [1] it was 13.1 µM. Further, the GI50 in the assay on MV-4-11 cells was 0.0162 µM; in the assay on K-562 cells, 0.27 µM; with THP-1 cells, 0.0828 µM. Besides, the “MV-4-11 TGI” value with MV-4-11 cells is 0.03175 µM. Further, the “K-562 TGI” value with K-562 cells is above 10 µM. Also, in the assay on THP-1 cells, the “THP-1 TGI” value was 0.271 µM.

With `Cc1cc(N2C(=O)c3nc(C4=CCCN(C)C4)n(C(C)C)c3C2c2ccc(Cl)cc2)cn2c(CF)nnc12` (stereo not shown) [Example 91], the half-maximal inhibitory concentration (IC50) was 0.095 µM at BRD2 (His-Brd2(60-472)), 0.045 µM at BRD3 (His-Brd3(20-477)), 0.0345 µM at BRD4 (His-Brd4(44-477)) and 17.5 µM in assay [1]. Besides, the 50% growth inhibitory concentration (GI50) was found to be 0.0274 µM in the assay with MV-4-11 cells, 0.353 µM in the assay on K-562 cells and 0.122 µM in the assay with THP-1 cells. The “MV-4-11 TGI” value with MV-4-11 cells worked out at 0.0637 µM. Also, the “K-562 TGI” value in the assay with K-562 cells was above 10 µM. The “THP-1 TGI” value in the assay with THP-1 cells turned out to be 0.334 µM.

Regarding `Cc1cc(N2C(=O)c3nc(C4=CCOC4)n(C(C)C)c3C2c2ccc(Cl)cc2)cn2c(CF)nnc12` (stereo not shown) [Example 92, 6-(4-chlorophenyl)-2-(2,5-dihydrofuran-3-yl)-5-(3-(fluoromethyl)-8-methyl-[1,2,4]triazolo[4,3-a]pyridin-6-yl)-1-isopropyl-5,6-dihydropyrrolo[3,4-d]imidazol-4(1H)-one], the half-inhibitory concentration (IC50) at BRD2 (His-Brd2(60-472)) was 0.027 µM; at BRD3 (His-Brd3(20-477)), 0.027 µM; at BRD4 (His-Brd4(44-477)), below 0.011 µM; in assay [1], 5.8 µM. In addition, the figures for the GI50 in the assay with MV-4-11 cells, in the assay with K-562 cells and in the assay on THP-1 cells were 0.0153 µM, 0.11 µM and 0.0239 µM, respectively. The “MV-4-11 TGI” value in the assay on MV-4-11 cells came to 0.03365 µM. Also, the “K-562 TGI” value with K-562 cells was above 10 µM. In addition, in the assay with THP-1 cells, the “THP-1 TGI” value was determined as 0.0784 µM.

What is called IC50 is the concentration needed to halve the response being measured. The GI50 is the concentration giving 50% growth inhibition.
